These are literature values, as cited in patent publication US20210215697A1, “Serum Biomarkers” (BerGenBio ASA, priority 2018, published 2021).

One data set concerns OCI-AML5 cells. The conditions noted are these: Ben-Batalla et al, 2013.

As for `Nc1nc(Nc2ccc3c(c2)CC[C@@H](N2CCCC2)CC3)nn1-c1cc2c(nn1)-c1ccccc1CCC2` [BGB324, 1-(6,7-dihydro-5H-benzo[6,7]cyclohepta[1,2-c]pyridazin-3-yl)-N3-((7-(S)-pyrrolidin-1-yl)-6,7,8,9-tetrahydro-5H-benzo[7]annulene-2-yl)-1H-1,2,4-triazole-3,5-diamine], the “IC50 to Axl inhibitors (in words)” value in the data set with MOLM13 cell line (MOLM13, Ben-Batalla et al, 2013) is listed as “low”; in the data set with Mv4-11 cell line (Mv4-11, Ben-Batalla et al, 2013) it was “low”; in the data set with Kasumi cell line (Ben-Batalla et al, 2013) it was “high”; in the data set with OCI-M1 cell line (OCI-M1, Ben-Batalla et al, 2013), “high”; in the data set with OCI-AML5 cells, “high”.

In the case of `Nc1nc(Nc2ccc3c(c2)CC[C@@H](N2CCCC2)CC3)nn1-c1cc2c(nn1)-c1ccccc1CCC2` [BGB324/R428/bemcentinib, bemcentinib], the IC50 (in general, the point on the concentration scale where inhibition reaches its midpoint) with MOLM13 cell line (MOLM13, "responder" AML cell line) was 450 nM; in the data set with Mv4-11 cell line (Mv4-11, "responder" AML cell line), 140 nM; in the data set on Kasumi cell line ("non-responder" AML cell line), 1200 nM; in the data set on OCI-M1 cell line (OCI-M1, "non-responder" AML cell line), 1800 nM.
